{"source": "PubChem BioAssay AID588539", "about": "(The Scripps Research Institute Molecular Screening Center, 2011)", "test": "subG1, G1, S, G2/M shifts, DLD-1 – cell-based, flow cytometry, propidium iodide, powder samples, counter-screen for KLF5 inhibitor project, late-stage follow-up (AID 588539)", "conditions": "DLD-1 cell cycle, at 10 µM; for G1 cells: G1 phase fraction; for G2/M cells: G2/M phase fraction; for S cells: S phase fraction; for subG1 cells: stronger effect = higher value"}
{"smiles": "CN(C(=O)COC(=O)/C=C/c1cccc([N+](=O)[O-])c1)C1CCS(=O)(=O)C1", "note": "(stereo not drawn)", "values": [{"measurement": "G1 cells", "setting": "24 h", "result": 39.4, "unit": "%"}, {"measurement": "G2/M cells", "setting": "24 h", "result": 34.7, "unit": "%"}, {"measurement": "S cells", "setting": "24 h", "result": 18.3, "unit": "%"}, {"measurement": "subG1 cells", "setting": "24 h", "result": 8.03, "unit": "%"}, {"measurement": "G1 cells", "setting": "48 h", "result": 27.6, "unit": "%"}, {"measurement": "G2/M cells", "setting": "48 h", "result": 57.6, "unit": "%"}, {"measurement": "S cells", "setting": "48 h", "result": 13, "unit": "%"}, {"measurement": "subG1 cells", "setting": "48 h", "result": 1.86, "unit": "%"}]}
